Measured values from PubChem BioAssay (NCI).
“And” between values parts separate entries of the source, which are not always exact repeats. Equal values may be shown once.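 1) Cells in 96-well plates. 2) Compound, 48 h, 5 concentrations. 3) Linear interpolation between surrounding doses. 4) Unreached endpoint = highest concentration. GI50: concentration for 50% inhibition of growth. The concentration for full growth arrest is given as TGI.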

Legend:
Assay in all cases: NCI tumour cell line growth inhibition, 48 h
[1] = system: DLD-1 colon
[2] = system: DMS 114 small cell lung
[3] = system: DMS 273 small cell lung
[4] = system: KM20L2 colon
[5] = system: LXFL 529 NSCLC
[6] = system: XF 498 CNS
[7] = system: MDA-N
[8] = system: HOP-18 NSCLC
[9] = system: P388 leukemia
[10] = system: P388/ADR leukemia
[11] = system: RXF-631 renal
[12] = system: SN12K1 renal

With `COC(=O)c1c(C(=O)OC)c(-c2ccccc2)n(-c2ccccc2)c(=O)c1-c1ccccc1` as the molecule, how does the TGI [1] read?
The TGI was greater than 100 µM.

What about the TGI [2] of the same molecule?
The TGI was greater than 100 µM.

What about the TGI [3] of the same molecule?
Its TGI is greater than 100 µM.

What about the TGI [4] of the same molecule?
The TGI was greater than 100 µM.

What about the TGI [5] of the same molecule?
Its TGI is greater than 100 µM.

What about the TGI [6] of the same molecule?
The TGI was 68.8 µM.

How did the TGI [7] turn out when `CC(C)(Oc1ccc(-c2cccc3ccccc23)cc1)C(=O)O` was run?
Its TGI is greater than 100 µM.

For `O=c1[nH]c2cc(Cl)ccc2nc1/C(=N\Nc1ccccc1)C(O)c1ccc2c(c1)OCO2` (stereo unspecified), which TGI [7] is on record?
Its TGI is greater than 100 µM.

Which TGI [1] does the source give for `COc1ccc(/C=C/C(=O)c2c(-c3ccccc3)nn(C)c(=O)c2N2CC2C)cc1` (stereo unspecified) here?
The TGI was greater than 100 µM.

And the TGI [2]?
Its TGI is 90.6 µM.

What about the TGI [3] of the same molecule?
Its TGI is 68.5 µM.

And the TGI [8]?
Its TGI is greater than 100 µM.

And the TGI [4]?
Its TGI is 80 µM.

And the TGI [5]?
Its TGI is 93.2 µM.

`N#C/C(=C\c1ccc(O)cc1)C(N)=O` was tested. Which TGI [1] did it give?
The TGI was greater than 100 µM.

And the TGI [2]?
The TGI was greater than 100 µM.

What about the TGI [3] of the same molecule?
Its TGI is greater than 100 µM.

And the TGI [4]?
The TGI was greater than 100 µM.

And the TGI [5]?
The TGI was greater than 100 µM.

What about the TGI [9] of the same molecule?
The TGI was greater than 100000 nM.

And the TGI [10]?
Its TGI is greater than 100000 nM.

And the TGI [11]?
The TGI was greater than 100 µM.

And the TGI [12]?
Its TGI is greater than 100000 nM.

And the TGI [6]?
Its TGI is greater than 100 µM.

Which TGI [1] does the source give for `Cc1cc(NCCCCCCCNc2cc(C)nc3cc(N)ccc23)c2ccc(N)cc2n1` here?
The TGI was greater than 100 µM.

What about the TGI [2] of the same molecule?
Its TGI is 32 µM.

And the TGI [4]?
The TGI was greater than 100 µM.

What about the TGI [5] of the same molecule?
Its TGI is greater than 100 µM.

What about the TGI [6] of the same molecule?
Its TGI is 66.2 µM.

Which results are given for `O=C(N/C(=C\c1ccc([N+](=O)[O-])cc1)c1nc2ccccc2s1)c1ccccc1`?
TGI [1]: 58.7 µM; TGI [2]: 68.4 µM; TGI [3]: > 100 µM; TGI [8]: 61.9 µM; TGI [4]: > 100 µM; TGI [5]: 42.9 µM; TGI [6]: > 100 µM

How did the TGI [2] turn out when `O=P(CN1CCOCC1)(c1ccccc1)c1ccccc1` was run?
The TGI was greater than 100 µM.

What about the TGI [3] of the same molecule?
The TGI was greater than 100 µM.

And the TGI [5]?
Its TGI is greater than 100 µM.

What about the TGI [11] of the same molecule?
The TGI was greater than 100 µM.

And the TGI [6]?
Its TGI is greater than 100 µM.

What does the source list for `CC1[C@@]2(CCC(C)(C)O2)O[C@@H]2C=C3C4CCC5Cc6nc7c(nc6C[C@@]5(C)C4C[C@H](O)[C@@]3(C)[C@]12O)CC1CCC2C3=C[C@H]4O[C@@]5(O[C@@](C)(CO)C[C@@H]5O)C(C)[C@@]4(O)[C@]3(C)[C@@H](O)CC2[C@]1(C)C7` (stereo partly specified)?
GI50 [1]: 80.5 nM; TGI [1]: 1.11 µM; GI50 [2]: 0.805 nM; GI50 [3]: < 0.365 nM; GI50 [4]: 2.89 nM; TGI [4]: 0.478 µM and 0.089 µM; TGI [5]: 0.0824 µM; TGI [9]: 734 nM; TGI [10]: 1160 nM; TGI [11]: 0.213 µM; TGI [12]: 395 nM; GI50 [6]: 4.88 nM

`C/C=C/C=C/c1cc2cc3c(c(O)c2c(=O)[nH]1)C1(CC3)C(O)=c2c(=O)c3c(=O)cc(OC)c(=O)c=3c(=O)c2=C1O` (stereo unspecified) was tested. Which TGI [1] did it give?
Its TGI is 17.9 µM.

And the TGI [2]?
Its TGI is 4.83 µM.

And the TGI [3]?
Its TGI is 7.82 µM.

And the TGI [8]?
The TGI was 7.47 µM.

And the TGI [4]?
Its TGI is 10.9 µM.

And the TGI [5]?
The TGI was 4.56 µM.

And the TGI [7]?
The TGI was 11.9 µM.

What about the TGI [11] of the same molecule?
The TGI was greater than 100 µM.

How did the TGI [7] turn out when `COC1C(OC(=O)c2ccc(C)[nH]2)C(O)C(Oc2ccc3c(O)c(NC(=O)c4ccc(O)c(CC=C(C)C)c4)c(=O)oc3c2Cl)OC1(C)C` (stereo unspecified) was run?
Its TGI is greater than 100 µM.

With `COC(=O)CC1(O)C(=O)OCc2c1cc1n(c2=O)Cc2c-1nc1ccccc1c2OC` (stereo unspecified) as the molecule, how does the TGI [1] read?
The TGI was greater than 100 µM.

And the TGI [2]?
The TGI was greater than 33.1 µM.

What about the TGI [3] of the same molecule?
The TGI was 3.35 µM.

And the TGI [8]?
The TGI was greater than 100 µM.

And the TGI [4]?
The TGI was greater than 100 µM.

And the TGI [5]?
Its TGI is greater than 100 µM.

What about the TGI [11] of the same molecule?
The TGI was greater than 100 µM.

What about the TGI [6] of the same molecule?
The TGI was 40 µM.

Which TGI [1] does the source give for `CCOc1ccc(NC(=O)CC2SC(=Nc3ccc(C)cc3)NC2=O)cc1` (stereo unspecified) here?
The TGI was greater than 100 µM.

What about the TGI [2] of the same molecule?
Its TGI is greater than 100 µM.

What about the TGI [3] of the same molecule?
Its TGI is greater than 100 µM.

And the TGI [4]?
Its TGI is greater than 100 µM.

What about the TGI [5] of the same molecule?
Its TGI is greater than 100 µM.

What about the TGI [11] of the same molecule?
Its TGI is greater than 100 µM.

What about the TGI [6] of the same molecule?
The TGI was greater than 100 µM.

`O=S(=O)(c1ccccc1)N1CCCC(c2ccccc2)CC1` (stereo unspecified) was tested. Which TGI [7] did it give?
Its TGI is greater than 100 µM.

Which TGI [7] does the source give for `Cc1nc2c(C)ccc([N+](=O)[O-])c2c(NCCCN(C)C)c1C` here?
The TGI was greater than 100 µM.

How did the TGI [1] turn out when `CC1NOC(=O)C1N=Nc1cccc(Cl)c1` (stereo unspecified) was run?
The TGI was greater than 100 µM.

What about the TGI [2] of the same molecule?
The TGI was 61.7 µM.

And the TGI [3]?
The TGI was greater than 100 µM.

And the TGI [8]?
The TGI was greater than 100 µM.

And the TGI [4]?
Its TGI is greater than 100 µM.

And the TGI [5]?
Its TGI is greater than 100 µM.

And the TGI [6]?
Its TGI is 72 µM.
